Data as given in US20060142247A1, “Tricyclic heterocycles” (priority 2004, published 2006).

Biological target: T1, Aurora A (Homo sapiens, UniProt O14965)
T1 construct: C-terminally Histidine4 (His4)-tagged Aurora A full-length protein; His4 (C)
T1 sequence (O14965 1-403): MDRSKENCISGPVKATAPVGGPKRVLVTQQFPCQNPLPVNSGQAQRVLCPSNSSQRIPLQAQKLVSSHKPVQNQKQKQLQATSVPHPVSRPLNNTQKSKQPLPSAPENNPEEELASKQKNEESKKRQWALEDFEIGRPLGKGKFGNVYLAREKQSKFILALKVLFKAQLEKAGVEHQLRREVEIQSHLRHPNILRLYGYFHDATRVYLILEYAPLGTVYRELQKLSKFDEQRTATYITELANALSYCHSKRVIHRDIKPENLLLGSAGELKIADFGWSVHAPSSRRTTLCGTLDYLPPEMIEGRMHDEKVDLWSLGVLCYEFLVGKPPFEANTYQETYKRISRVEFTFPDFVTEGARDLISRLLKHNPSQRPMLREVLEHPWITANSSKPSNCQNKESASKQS
Assay: IC50 determination for inhibitors of Aurora A (96 MTP-ELISA)
Type: biochemical
Details: His4-tagged full-length Aurora A 250 ng/ml, PKB-GSK2 200 nM, ATP 4 μM, 90 min room temperature, read-out: IC50 Aurora A kinase inhibition
Summary of the method: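 ELISA read-out: after EDTA stop, phospho-GSK3-alpha (Ser 21) Mab and HRP-linked anti-mouse IgG detected with ABTS at 405/492 nm. The kinase step used His4-tagged full-length Aurora A, 250 ng/ml, 200 nM biotin peptide, ATP 4 μM, pH 7.8, 90 min at RT. Compounds tested at eight concentrations, 100 μM down to 0.00128 μM, for curve-fit IC50.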

Row | IC50 | SMILES
1 | 100 to 250 nM | O=C1Nc2cc3nc(-c4n[nH]c5ccccc45)[nH]c3cc2C12CCCC2 [Example 9, 2-(1H-indazol-3-yl)-spiro[7,7-cyclopentan-5,7-dihydro-3H-imidazo[4,5-f]indol]-6-one]
2 | 1 to 100 nM | CC1(C)C(=O)N(CC(N)=O)c2cc3[nH]c(-c4n[nH]c5ccccc45)nc3cc21 [Example 37, 2-[2-(1H-Indazol-3-yl)-7,7-dimethyl-6-oxo-6,7-dihydro-3H-imidazo[4,5-f]indol-5-yl]-acetamide]
3 | 1 to 100 nM | CCN1C(=O)C(C)(C)c2cc3nc(-c4n[nH]c5ccccc45)[nH]c3cc21 [Example 3, 5-Ethyl-2-(1H-indazol-3-yl)-7,7-dimethyl-5,7-dihydro-3H-imidazo[4,5-f]indol-6-one]
4 | 1 to 100 nM | CN(C)CCCN1C(=O)C(C)(C)c2cc3nc(-c4n[nH]c5ccccc45)[nH]c3cc21 [Example 21, 5-(3-Dimethylamino-propyl)-2-(1H-indazol-3-yl)-7,7-dimethyl-5,7-dihydro-3H-imidazo[4,5-f]indol-6-one]
